Measured values taken from patent publication US5686461A, “Indole derivatives” (Glaxo Wellcome S.p.A., priority 1993, dated 1997).
pKi: −log10 of the molar value. Counter-ions that a name gives are not always drawn. Like-named read-outs stand apart in the source and are kept apart here.

Experiments:
NMDA induced convulsions = test: inhibition of NMDA induced convulsions in the mouse (procedure of Chiamulera C et al.); format: in vivo
Text: In this test the ability of the compound to inhibit the generalized seizures induced by an intracerebroventricular injection of NMDA in mice was examined at a number of dose levels. […] This expressed as mg/kg is referred to as the ED50 value.

[1] = molecular target: T1, strychnine insensitive glycine binding site located on the NMDA receptor complex (Rattus norvegicus, UniProt P35439); test: biochemical
T1 construct: from tissue

[2] = mouse, intravenous, NMDA given intracerebroventricularly, read-out: ED50 (dose required to protect 50% of the animals from the convulsive action of NMDA), iv
[3] = mouse, oral, NMDA given intracerebroventricularly, read-out: ED50 (dose required to protect 50% of the animals from the convulsive action of NMDA), po

pKi [1] | Structure (SMILES) | further results
– | O=C(/C=C/c1c(C(=O)[O-])[nH]c2cc(Cl)cc(Cl)c12)NC12CC3CC(CC(C3)C1)C2.[Na+] | ED50 (NMDA induced convulsions; Mus musculus, iv, read-out: ED50 (dose required to protect 50% of the animals from the convulsive action of NMDA), iv): 0.02 mg/kg; ED50 (NMDA induced convulsions; Mus musculus, po, read-out: ED50 (dose required to protect 50% of the animals from the convulsive action of NMDA), po): 5.47 mg/kg
7.60 | O=C(/C=C/c1c(C(=O)O)[nH]c2cc(Cl)cc(Cl)c12)NC1C2CC3CC(C2)CC1C3 (stereo not drawn) [Example 17, (E) 3-[2'-(2"-adamantylaminocarbonyl)ethenyl]-4,6-dichloroindole-2-carboxylic acid sodium salt] | –
7.70 | O=C(/C=C/c1c(C(=O)O)[nH]c2cc(Cl)cc(Cl)c12)N[C@@H]1C[C@H]2CC[C@@H]1C2 (relative stereo) [Example 10b, (E)-3-(2'-exo-2-norbornylcarbamoyl)ethenyl)-4,6-dichloroindole-2-carboxylicacid sodium salt] | ED50 (NMDA induced convulsions; [2]): 0.01 mg/kg; ED50 (NMDA induced convulsions; [3]): 11.1 mg/kg
7.40 | CC1(C)[C@@H]2CC[C@@]1(C)[C@@H](NC(=O)/C=C/c1c(C(=O)O)[nH]c3cc(Cl)cc(Cl)c13)C2 [Example 16, (E) 3-[2'-(1"-R-bornyl-2"-aminocarbonyl)ethenyl]-4,6-dichloroindole-2 carboxylic acid sodium salt] | –
8.00 | O=C(/C=C/c1c(C(=O)O)[nH]c2cc(Cl)cc(Cl)c12)N[C@H]1C[C@H]2CC[C@@H]1C2 (relative stereo) [Example 11, (E) 3-[2-endo-2-norbornylcarbamoyl)ethenyl]4,6-dichloroindole-2-carboxylic acid sodium salt] | –
7.58 | O=C(/C=C/c1c(C(=O)O)[nH]c2cc(Cl)cc(Cl)c12)NC12CC3CC(CC1C3)C2 [Example 14, (E) 3-[2'-(noradamantyl-3"-aminocarbonyl)ethenyl]-4,6-dichloroindole-2-carboxylic acid sodium salt] | ED50 (NMDA induced convulsions; [2]): 0.05 mg/kg; ED50 (NMDA induced convulsions; [3]): 6 mg/kg

Structure (SMILES) | pKi [1] | further results
O=C(/C=C/c1c(C(=O)[O-])[nH]c2cc(Cl)cc(Cl)c12)NC12CC3CC(CC(C3)C1)C2.[Na+] [sodium salt] | 7.20 | –
